In paper PMC6315694, “Synthesis of Pseudellone Analogs and Characterization as Novel T-type Calcium Channel Blockers” (Marine Drugs, 2018):

How the values were obtained:
[1] = tested on: L-type calcium channel (CaV1); test: HVA calcium channel FLIPR assay, L-type (SH-SY5Y cells); format: cell-based, human; settings: 1 µM CVID present, N = 3, mean ± SEM, read-out: IC50 CaV1 (HVA CaVs)
Protocol: (§1) The human embryonic kidney 293 (HEK 293) cell lines (from Emmanuel Bourinet, Montpellier, France) stably expressing CaV3.2 or CaV3.3 were cultured under 5% carbon dioxide at 37 °C in Dulbecco’s Modified Eagle Medium (DMEM) Glutamax (Gibco, Life Technologies, Carlsbad, CA, USA) supplemented with 10% (v/v) fetal bovine serum (FBS), 100 U/mL penicillin, 100 μg/mL streptomycin (Gibco, Life Technologies), and 750 μg/mL geneticin (G418) (Gibco, Life Technologies). The Chinese Hamster Ovary (CHO) cell lines (Emmanuel Bourinet, Montpellier, France) expressing CaV3.1 were cultured under 5% carbon dioxide at 37 °C in Alpha Minimum Essential Media (MEM) Glutamax (Gibco, Life Technologies), supplemented with 10% (v/v) fetal bovine serum (FBS) and 300 μg/mL geneticin (G418) (Gibco, Life Technologies). The human neuroblastoma SH-SY5 Y cells (Victor Diaz, Goettingen, Germany) were cultured under 5% carbon dioxide at 37 °C in RPMI 1640 antibiotic-free medium (Invitrogen, Carlsbad, CA, USA), supplemented with 15% FBS and 2 mM GlutaMAX™ (Invitrogen). D-PBS (Gibco, Life Technologies) was used to wash the cells, and 0.25% Trypsin-EDTA (Gibco, Life Technologies) was used to detach cells from the flask surface. They were split in a ratio of 1:5 (ideally 1000 cells/cm^2) when they reached 70%–80% confluence (every 2–3 days). Transiently transfected CaV3.1HEK293 T cells were used in FLIPR Assays. HEK 293 T cells were cultured under 5% carbon dioxide at 37 °C in DMEM supplemented with 10% (v/v) FBS. D-PBS was used to wash the cells, and 0.25% Trypsin-EDTA was used to detach cells from the flask surface. The cells were split and seeded at 6 million cells per T175 flask, to reach 70%–80% confluence after 24 h. The next day, 12 μg DNA of human CaV3.1 was incubated in 900 μL serum-free DMEM with 36 μL FuGENE HD transfection reagent (Promega Corporation, Madison, WI, US) (1:3 DNA/Fugene ratio) for 20 min, and then the mixture was added into the cell flask slowly, drop by drop. After the transfection, the cells were cultured under 5% carbon dioxide at 37 °C for 24 h and then moved to a 28 °C incubator.
SH-SY5Y cells were seeded into 384-well black wall clear bottom plates at a density of 15,000 cells per well, resulting in 90%–95% confluence after 24 h. […] The fluorescence readings were recorded and converted as described previously, and agonist containing 90 mM KCl + 5 mM CaCl2 was used in the second addition.
(§2) Data were plotted and analyzed using GraphPad Prism v7.0 (GraphPad Software Inc., San Diego, CA, USA). […]

[2] = biological target: T1, recombinant hCaV3.1 channels (Homo sapiens, UniProt O43497); test: Whole-cell patch-clamp QPatch 16 X, CaV3.1; format: cell-based
T1 construct: host or cells: probably the CHO line expressing CaV3.1 (inferred: the transient HEK293T cells are assigned to FLIPR)
T1 sequence (O43497 whole entry): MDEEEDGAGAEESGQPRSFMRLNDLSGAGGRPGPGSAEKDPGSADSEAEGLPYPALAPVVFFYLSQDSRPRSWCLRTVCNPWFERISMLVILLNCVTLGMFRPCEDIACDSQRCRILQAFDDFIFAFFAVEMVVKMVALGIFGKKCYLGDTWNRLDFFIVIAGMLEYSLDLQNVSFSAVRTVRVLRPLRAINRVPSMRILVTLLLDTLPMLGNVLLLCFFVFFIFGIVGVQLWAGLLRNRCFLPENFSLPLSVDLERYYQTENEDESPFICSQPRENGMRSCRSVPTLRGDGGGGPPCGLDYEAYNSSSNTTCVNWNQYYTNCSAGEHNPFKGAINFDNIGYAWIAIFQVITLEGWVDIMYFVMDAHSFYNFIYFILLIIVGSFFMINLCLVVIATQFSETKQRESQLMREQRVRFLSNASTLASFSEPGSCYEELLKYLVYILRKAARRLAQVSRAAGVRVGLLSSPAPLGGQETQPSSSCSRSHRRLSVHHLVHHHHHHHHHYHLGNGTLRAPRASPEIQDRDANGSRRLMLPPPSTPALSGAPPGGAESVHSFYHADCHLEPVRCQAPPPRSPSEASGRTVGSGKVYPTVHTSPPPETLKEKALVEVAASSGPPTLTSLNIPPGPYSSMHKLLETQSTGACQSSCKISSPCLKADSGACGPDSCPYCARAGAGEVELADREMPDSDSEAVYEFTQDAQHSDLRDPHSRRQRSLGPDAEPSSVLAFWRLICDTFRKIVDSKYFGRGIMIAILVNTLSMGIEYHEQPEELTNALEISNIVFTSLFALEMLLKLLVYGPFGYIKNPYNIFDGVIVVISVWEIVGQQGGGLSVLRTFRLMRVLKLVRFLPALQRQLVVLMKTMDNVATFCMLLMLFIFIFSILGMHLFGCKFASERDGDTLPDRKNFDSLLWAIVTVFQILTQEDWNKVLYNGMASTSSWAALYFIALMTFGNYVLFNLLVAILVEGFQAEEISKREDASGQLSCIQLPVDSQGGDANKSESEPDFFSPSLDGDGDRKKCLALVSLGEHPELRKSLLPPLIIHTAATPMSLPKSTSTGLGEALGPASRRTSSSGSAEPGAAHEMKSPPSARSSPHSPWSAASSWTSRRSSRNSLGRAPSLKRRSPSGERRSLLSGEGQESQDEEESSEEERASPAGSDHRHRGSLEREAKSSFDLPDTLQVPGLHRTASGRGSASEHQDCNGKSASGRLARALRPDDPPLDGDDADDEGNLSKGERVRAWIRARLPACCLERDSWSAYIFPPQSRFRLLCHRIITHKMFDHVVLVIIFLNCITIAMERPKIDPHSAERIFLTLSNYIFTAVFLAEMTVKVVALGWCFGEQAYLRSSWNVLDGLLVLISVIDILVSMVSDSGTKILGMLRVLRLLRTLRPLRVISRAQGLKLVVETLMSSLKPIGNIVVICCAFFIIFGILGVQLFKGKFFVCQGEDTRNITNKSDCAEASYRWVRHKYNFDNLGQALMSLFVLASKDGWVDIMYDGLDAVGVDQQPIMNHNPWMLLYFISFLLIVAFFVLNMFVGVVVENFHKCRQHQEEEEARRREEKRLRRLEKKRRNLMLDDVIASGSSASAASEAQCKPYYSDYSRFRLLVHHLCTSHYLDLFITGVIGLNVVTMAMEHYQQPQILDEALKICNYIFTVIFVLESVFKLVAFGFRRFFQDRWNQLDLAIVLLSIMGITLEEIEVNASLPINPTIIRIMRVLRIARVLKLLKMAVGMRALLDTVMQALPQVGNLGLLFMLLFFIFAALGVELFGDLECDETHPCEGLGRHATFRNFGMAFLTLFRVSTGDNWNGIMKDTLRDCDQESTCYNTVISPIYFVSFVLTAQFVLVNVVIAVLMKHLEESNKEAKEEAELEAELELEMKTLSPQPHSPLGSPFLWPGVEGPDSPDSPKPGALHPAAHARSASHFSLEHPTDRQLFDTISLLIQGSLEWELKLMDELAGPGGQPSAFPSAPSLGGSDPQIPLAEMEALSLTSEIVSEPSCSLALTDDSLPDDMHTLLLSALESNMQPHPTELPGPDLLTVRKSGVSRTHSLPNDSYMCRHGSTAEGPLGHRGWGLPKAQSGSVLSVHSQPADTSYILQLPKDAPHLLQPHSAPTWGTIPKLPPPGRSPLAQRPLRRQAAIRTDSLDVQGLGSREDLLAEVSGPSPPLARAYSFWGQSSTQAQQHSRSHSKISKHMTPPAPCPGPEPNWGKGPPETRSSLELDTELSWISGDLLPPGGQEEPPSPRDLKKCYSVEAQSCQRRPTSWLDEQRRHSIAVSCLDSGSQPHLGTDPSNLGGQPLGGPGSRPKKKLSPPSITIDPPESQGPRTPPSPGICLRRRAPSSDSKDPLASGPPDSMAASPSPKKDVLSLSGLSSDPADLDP
Protocol: as §1, with “After the transfection, the cells were cultured under 5% carbon dioxide at 37 °C for 24 h and then moved to a 28 °C incubator.” left out
as §2

[3] = biological target: recombinant hCaV3.3 channels (Homo sapiens, UniProt Q9P0X4); test: Whole-cell patch-clamp QPatch 16 X, CaV3.3; format: cell-based
Chain of recombinant hCaV3.3 channels (Q9P0X4 whole entry): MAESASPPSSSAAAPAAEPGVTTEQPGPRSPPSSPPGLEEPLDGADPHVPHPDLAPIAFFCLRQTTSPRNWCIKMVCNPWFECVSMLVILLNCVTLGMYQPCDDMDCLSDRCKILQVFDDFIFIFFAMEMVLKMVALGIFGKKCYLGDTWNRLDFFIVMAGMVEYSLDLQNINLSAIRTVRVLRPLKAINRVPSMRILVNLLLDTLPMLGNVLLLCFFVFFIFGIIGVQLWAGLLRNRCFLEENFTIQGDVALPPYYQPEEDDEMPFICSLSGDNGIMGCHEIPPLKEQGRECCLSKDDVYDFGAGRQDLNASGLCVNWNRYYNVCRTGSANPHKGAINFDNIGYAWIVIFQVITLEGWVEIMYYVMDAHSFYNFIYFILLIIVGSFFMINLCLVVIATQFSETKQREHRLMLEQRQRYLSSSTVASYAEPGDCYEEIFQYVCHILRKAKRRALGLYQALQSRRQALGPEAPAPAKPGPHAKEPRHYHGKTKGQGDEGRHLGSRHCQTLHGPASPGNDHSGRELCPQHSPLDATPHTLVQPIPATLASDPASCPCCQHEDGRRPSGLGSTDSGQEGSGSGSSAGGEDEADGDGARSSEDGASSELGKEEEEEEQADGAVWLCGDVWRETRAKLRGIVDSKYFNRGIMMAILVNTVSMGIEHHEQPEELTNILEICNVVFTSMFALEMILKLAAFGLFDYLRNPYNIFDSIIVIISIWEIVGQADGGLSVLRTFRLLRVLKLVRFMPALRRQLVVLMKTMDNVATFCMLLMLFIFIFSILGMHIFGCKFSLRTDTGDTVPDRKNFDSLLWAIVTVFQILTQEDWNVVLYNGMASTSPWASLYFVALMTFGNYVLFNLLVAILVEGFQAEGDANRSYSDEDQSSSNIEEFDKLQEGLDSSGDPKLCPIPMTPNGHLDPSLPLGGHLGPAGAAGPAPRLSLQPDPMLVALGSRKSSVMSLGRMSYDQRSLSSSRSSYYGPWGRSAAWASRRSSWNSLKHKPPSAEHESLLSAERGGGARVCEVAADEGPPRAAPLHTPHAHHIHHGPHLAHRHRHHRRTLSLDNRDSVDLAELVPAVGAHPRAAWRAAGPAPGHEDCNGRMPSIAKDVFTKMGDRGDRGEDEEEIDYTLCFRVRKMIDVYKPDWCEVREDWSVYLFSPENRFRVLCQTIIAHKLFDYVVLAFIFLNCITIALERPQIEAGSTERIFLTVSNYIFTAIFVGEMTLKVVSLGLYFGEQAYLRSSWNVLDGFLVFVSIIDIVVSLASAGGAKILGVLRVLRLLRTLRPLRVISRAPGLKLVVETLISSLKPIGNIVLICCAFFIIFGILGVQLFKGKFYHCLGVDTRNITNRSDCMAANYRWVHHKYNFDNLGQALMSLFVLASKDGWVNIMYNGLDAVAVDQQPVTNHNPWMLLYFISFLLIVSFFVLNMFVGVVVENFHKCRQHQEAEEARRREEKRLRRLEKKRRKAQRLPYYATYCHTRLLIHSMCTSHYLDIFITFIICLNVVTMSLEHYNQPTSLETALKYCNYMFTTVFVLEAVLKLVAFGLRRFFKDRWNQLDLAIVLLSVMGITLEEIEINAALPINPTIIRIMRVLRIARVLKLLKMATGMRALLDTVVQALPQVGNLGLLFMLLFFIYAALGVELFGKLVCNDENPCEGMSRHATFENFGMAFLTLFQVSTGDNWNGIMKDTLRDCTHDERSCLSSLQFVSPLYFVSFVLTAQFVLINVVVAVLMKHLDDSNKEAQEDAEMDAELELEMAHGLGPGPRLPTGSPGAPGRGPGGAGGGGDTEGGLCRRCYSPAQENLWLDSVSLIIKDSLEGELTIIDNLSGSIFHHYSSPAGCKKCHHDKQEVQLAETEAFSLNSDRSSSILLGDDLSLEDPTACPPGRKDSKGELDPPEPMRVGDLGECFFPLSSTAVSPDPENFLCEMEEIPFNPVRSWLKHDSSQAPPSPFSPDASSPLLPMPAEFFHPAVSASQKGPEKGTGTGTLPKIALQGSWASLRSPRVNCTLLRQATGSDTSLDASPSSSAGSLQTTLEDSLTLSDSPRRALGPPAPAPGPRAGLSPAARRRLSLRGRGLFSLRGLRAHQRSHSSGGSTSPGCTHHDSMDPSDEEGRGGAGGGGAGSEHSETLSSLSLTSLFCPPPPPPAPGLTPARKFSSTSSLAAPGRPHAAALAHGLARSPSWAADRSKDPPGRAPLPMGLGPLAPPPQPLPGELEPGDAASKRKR
Protocol: as §1
Whole-cell patch-clamp experiments were performed on an automated electrophysiology platform QPatch 16 X (Sophion Bioscience A/S, Ballerup, Denmark) in single-hole configuration using 16-channel planar patch chip QPlates (Sophion Bioscience A/S). The extracellular recording solution contained, in mM: TEACl 157, MgCl2 0.5, CaCl2 5, and HEPES 10; pH 7.4 adjusted with TEAOH; and osmolarity 320 mOsm. The intracellular pipette solution contained, in mM: CsF 140, EGTA 1, HEPES 10, and NaCl 10; pH 7.2 adjusted with CsOH; and osmolarity 325 mOsm. […]
as §2

[4] = biological target: T2, N-type CaV2.2 (Homo sapiens, UniProt Q00975); test: HVA calcium channel FLIPR assay, N-type (SH-SY5Y cells); format: cell-based; settings: SH-SY5Y, 10 µM nifedipine present, N = 3, mean ± SEM, read-out: IC50 CaV2.2 (HVA CaVs)
T2 construct: endogenous in cells
Protocol: as §1
SH-SY5Y cells were seeded into 384-well black wall clear bottom plates at a density of 15,000 cells per well, resulting in 90%–95% confluence after 24 h. The media were then removed from the wells and replaced with 20 μL of 10% calcium 4 dye (Molecular Devices) in physiological salt solution (PSS) (containing 5.9 mM KCl, 1.4 mM MgCl2, 10 mM HEPES, 1.2 mM NaH2 PO4, 5 mM NaHCO3, 140 mM NaCl, 11.5 mM glucose, and 1.8 mM CaCl2, pH 7.4) with 0.1% BSA. […] Positive control on the first reagent plate contained 15 μL of PSS (0.1% BSA), whereas PSS (0.1% BSA) containing 1 µM CVID and 10 µM nifedipine (final concentration) was used as a negative control. The fluorescence readings were recorded and converted as described previously, and agonist containing 90 mM KCl + 5 mM CaCl2 was used in the second addition.
Data were plotted and analyzed using GraphPad Prism v7.0 (GraphPad Software Inc., San Diego, CA, USA). A four-parameter logistic Hill equation with variable Hill coefficients was fitted to the data for concentration-response curves. Data are means ± SEM of n independent experiments. Statistical analysis was performed with a paired Student’s t-test with statistical significance at p < 0.05.

[5] = QPatch, in the presence of compound

## COC(=O)[C@H](Cc1c[nH]c2ccccc12)NC(=O)C(C)(c1c[nH]c2ccccc12)c1c[nH]c2ccccc12 [Compound 3, Methyl (2,2-di(1H-indol-3-yl)propanoyl)-L-tryptophanate]
[1]
  IC50: 39.8 ± 3.98 µM
[2]; QPatch versus FLIPR, better for activated currents
  Potency for CaV3.1-activated currents relative to CaV3.1 window currents: > 7 fold
[2]; QPatch whole-cell, partial block, read-out: Emax value, block of CaV3.1 current
  Emax: 82.8 ± 2.55%
[2]; [5]
  Voltage-dependence of steady-state inactivation of CaV3.1, in words: not significantly shifted
[3]; QPatch whole-cell, full inhibition, read-out: Emax value, inhibition of CaV3.3 whole-cell current
  Emax: ≥ 95%
[3]; QPatch, 200 nM compound, read-out: Inhibition of the CaV3.3 peak current
  inhibition at 0.2 µM: < 10%
[3]; QPatch, 200 ms steps to Vmax (−10 mV) from holding −90 mV, n = 5, mean ± SEM, read-out: IC50 CaV3.3 whole-cell current
  IC50: 15.8 ± 2.28 µM
[3]; [5]
  Voltage-dependence of steady-state inactivation of CaV3.3, in words: not significantly shifted
[4]
  IC50: 31.3 ± 3.4 µM
